These results are taken from patent publication EP4238971A1, “SUBSTITUTED ISOXAZOLINE DERIVATIVES” (BASF SE, priority 2022, dated 2023).

What all share (type): in vivo
One series concerns Bemisia argentifolii. In words: Silverleaf whitefly (Bemisia argentifolii) adults, sprayed cotton plants. As for the experimental part:
B.8. Silverleaf whitefly (Bemisia argentifolii) (adults)
The active compounds were formulated by a Tecan liquid handler in 100% cyclohexanone as a 10,000-ppm solution supplied in tubes. The 10,000-ppm solution was serially diluted in 100% cyclohexanone to make interim solutions. These served as stock solutions for which final dilutions were made by the Tecan in 50% acetone:50% water (v/v) into 5 or 10ml glass vials. A nonionic surfactant (Kinetic®) was included in the solution at a volume of 0.01% (v/v). The vials were then inserted into an automated electrostatic sprayer equipped with an atomizing nozzle for application to plants/insects. Cotton plants at the cotyledon stage (one plant per pot) were sprayed by an automated electrostatic plant sprayer equipped with an atomizing spray nozzle. The plants were dried in the sprayer fume hood and then removed from the sprayer. Each pot was placed into a plastic cup and about 10 to 12 whitefly adults (approximately 3-5 days old) were introduced. The insects were collected using an aspirator and a nontoxic Tygon® tubing connected to a barrier pipette tip. The tip, containing the collected insects, was then gently inserted into the soil containing the treated plant, allowing insects to crawl out of the tip to reach the foliage for feeding. Cups were covered with a reusable screened lid. Test plants were maintained in a growth room at about 25°C and about 20-40% relative humidity for 3 days, avoiding direct exposure to fluorescent light (14:10 light:dark photoperiod) to prevent trapping of heat inside the cup. Mortality was assessed 3 days after treatment, compared to untreated control plants.

A further series concerns Heliothis virescens. In words: Tobacco budworm (Heliothis virescens) control, insect diet in 96-well microtiter plates. As for the experimental part:
(§1) If not otherwise specified, the test solutions were prepared as follows: The active compound was dissolved at the desired concentration in a mixture of 1:1 (vol:vol) distilled water:acetone. The test solution was prepared at the day of use.
(§2) Test solutions were prepared in general at a concentration of 2500ppm (wt/vol).
B.3. Tobacco budworm (Heliothis virescens)
For evaluating control of Tobacco Budworm, the test unit consisted of 96-well-microtiter plates containing an insect diet and 15-25 H. virescens eggs. The compounds were formulated using a solution containing 75% v/v water and 25% v/v DMSO. Different concentrations of formulated compounds were sprayed onto the insect diet at 10µl, using a custom-built micro atomizer, at two replications. After application, microtiter plates were incubated at about 28 ± 1°C and about 80 ± 5 % relative humidity for 5 days. Egg and larval mortality was then visually assessed.

The next series concerns Plutella xylostella. Put plainly: Diamond back moth (Plutella xylostella), cabbage leaf disc dip test. The method, then:
B.5. Diamond back moth (Plutella xylostella)
The active compound was dissolved at the desired concentration in a mixture of 1:1 (vol:vol) distilled water: acetone. Surfactant (Kinetic) was added at a rate of 0.01% (vol/vol). The test solution was prepared at the day of use. Cabbage leaf discs (60mm in diameter) were dipped in test solution and air-dried. Treated leaves were placed in petri dishes lined with moistened filter paper and inoculated with ten 3rd instar larvae. Mortality was recorded 72 hours after treatment. Feeding damages were also recorded using a scale of 0-100%.

A further series concerns Myzus persicae. In words: Green peach aphid (Myzus persicae), mixed life stages, systemic test via artificial diet under membrane. As for the experimental part:
as §1, §2
B.2. Green peach aphid (Myzus persicae) (mixed life stages)
For evaluating control of Green Peach Aphid through systemic means the test unit consisted of 96-well-microtiter plates containing liquid artificial diet under an artificial membrane. The compounds were formulated using a solution containing 75% v/v water and 25% v/v DMSO. Different concentrations of formulated compounds were pipetted into the aphid diet, using a custom-built pipette, at two replications. After application, 5 - 8 adult aphids were placed on the artificial membrane inside the microtiter plate wells. The aphids were then allowed to suck on the treated aphid diet and incubated at about 23 ± 1°C and about 50 ± 5 % relative humidity for 3 days. Aphid mortality and fecundity was then visually assessed.

For the next series, the system named is Anthonomus grandis. In words: Boll weevil (Anthonomus grandis) control, insect diet in 96-well microtiter plates. The method, then: as §1, §2
B.1. Boll weevil (Anthonomus grandis)
For evaluating control of boll weevil, the test unit consisted of 96-well-microtiter plates containing an insect diet and 5-10 A. grandis eggs.
The compounds were formulated using a solution containing 75% v/v water and 25% v/v DMSO. Different concentrations of formulated compounds were sprayed onto the insect diet at 5µl, using a custom-built micro atomizer, at two replications.
After application, microtiter plates were incubated at about 25 ± 1°C and about 75 ± 5 % relative humidity for 5 days. Egg and larval mortality were then visually assessed.

A further series deals with Aedes aegypti. In words: whole plant or invertebrate. Particulars: larval mortality visually assessed after 2 days. The method, then:
as §1, §2
B.4. Yellow fever mosquito (Aedes aegypti)
For evaluating control of Yellow Fever Mosquito, the test unit consisted of 96-well-microtiter plates containing 200µl of tap water per well and 5-15 freshly hatched A. aegypti larvae. The active compounds were formulated using a solution containing 75% (v/v) water and 25% (v/v) DMSO. Different concentrations of formulated compounds or mixtures were sprayed onto the insect diet at 2.5µl, using a custom-built micro atomizer, at two replications.
After application, microtiter plates were incubated at 28 ± 1°C, 80 ± 5 % RH for 2 days. Larval mortality was then visually assessed.

A further series has as its system Dichromothrips corbetti. In words: Orchid thrips (Dichromothrips corbetti), floral-immersion technique. As for the experimental part: B.6. Orchid thrips (Dichromothrips corbetti)
Dichromothrips corbetti adults used for bioassay were obtained from a colony maintained continuously under laboratory conditions. For testing purposes, the test compound was diluted in a 1:1 mixture of acetone:water (vol:vol), plus Kinetic at a rate of 0.01% v/v.
Thrips potency of each compound was evaluated by using a floral-immersion technique. Each orchid petal was dipped into treatment solution and allowed to dry in Petri dishes. Treated petals were placed into individual re-sealable plastic along with about 20 adult thrips. All test arenas were held under dark condition and a temperature of about 28°C for duration of the assay. The percent mortality was recorded 72 hours after treatment.

The subject of the next series is Spodoptera eridania. In words: Southern armyworm (Spodoptera eridania), 2nd instar larvae, sprayed lima bean plants. The method, then: B.7. Southern armyworm (Spodoptera eridania), 2nd instar larvae
The active compounds were formulated by a Tecan liquid handler in 100% cyclohexanone as a 10'000 ppm solution supplied in tubes. The 10'000 ppm solution was serially diluted in 100% cyclohexanone to make interim solutions. These served as stock solutions for which final dilutions were made by the Tecan in 50% acetone:50% water (v/v) into 10 or 20ml glass vials. A nonionic surfactant (Kinetic®) was included in the solution at a volume of 0.01% (v/v). The vials were then inserted into an automated electrostatic sprayer equipped with an atomizing nozzle for application to plants/insects. Lima bean plants (variety Sieva) were grown 2 plants to a pot and selected for treatment at the 1st true leaf stage. Test solutions were sprayed onto the foliage by an automated electrostatic plant sprayer equipped with an atomizing spray nozzle. The plants were dried in the sprayer fume hood and then removed from the sprayer. Each pot was placed into perforated plastic bags with a zip closure. Ten to 11 armyworm larvae were placed into the bag and the bags zipped closed. Test plants were maintained in a growth room at about 25°C and about 20-40% relative humidity for 4 days, avoiding direct exposure to fluorescent light (14:10 light:dark photo-period) to prevent trapping of heat inside the bags. Mortality and reduced feeding were assessed 4 days after treatment, compared to untreated control plants.

Setting [1] is: 2500ppm, egg and larval mortality visually assessed after 5 days.

Molecules are shown by their SMILES.

The term mortality denotes the share of the test organisms that died. As for `Fc1c(Cl)cc(C2(C(F)(F)F)CC(Nc3ccc(Cl)c(-n4cc(C(F)(F)F)cn4)c3)=NO2)cc1Cl` (stereo not shown) [I-14, N-[4-chloro-3-[4-(trifluoromethyl)pyrazol-1-yl]phenyl]-5-(3,5-dichloro-4-fluoro-phenyl)-5-(trifluoromethyl)-4H-isoxazol-3-amine], the mortality at 300 ppm with Bemisia argentifolii (Bemisia argentifolii, 72 h, read-out: mortality in comparison with untreated controls) is at least 75%; in the series on Plutella xylostella (Plutella xylostella, foliar, 72 h, read-out: mortality in comparison with untreated controls), at least 75%; in the series with Dichromothrips corbetti (Dichromothrips corbetti, 72 h, read-out: mortality in comparison with untreated controls) it was at least 75%; with Spodoptera eridania (Spodoptera eridania, 96 h, read-out: mortality in comparison with untreated controls) it was at least 75%. Also, the mortality at 2500 ppm in the series on Heliothis virescens (Heliothis virescens, 120 h, read-out: mortality in comparison with untreated controls) was at least 75%; in the series on Myzus persicae (Myzus persicae, 72 h, read-out: mortality in comparison with untreated controls), at least 75%; in the series on Anthonomus grandis (Anthonomus grandis, 120 h, read-out: mortality in comparison with untreated controls), at least 75%; in the series with Aedes aegypti (Aedes aegypti, 48 h, read-out: mortality in comparison with untreated controls), at least 75%.
`COCN(C1=NOC(c2cc(Cl)c(F)c(Cl)c2)(C(F)(F)F)C1)c1ccc(Cl)c(-n2cncn2)c1` (stereo not shown) [I-21]: the “mortality in comparison with untreated controls” value in the series with Bemisia argentifolii (300 ppm, adults, assessed 3 days after treatment) is reported as “at least 75%”; in the series on Heliothis virescens (setting [1]), “at least 75%”; in the series with Plutella xylostella (300ppm, 3rd instar larvae, mortality recorded 72 hours after treatment), “at least 75%”; with Myzus persicae (2500ppm, aphid mortality visually assessed after 3 days), “at least 75%”; with Anthonomus grandis (setting [1]), “at least 75%”; with Aedes aegypti (2500ppm) it was “at least 75%”. Moreover, the “mortality in comparison with untreated controls” value with Dichromothrips corbetti (300ppm, adult thrips, mortality recorded 72 hours after treatment) is recorded as “at least 75%”; in the series with Spodoptera eridania (300ppm, 2nd instar larvae, assessed 4 days after treatment), “at least 75%”.
